Assay results: BindingDB's records for PubMed 10991999 (Cocensys, 2000)
pKi: −log10 of the molar value.

Tests used:
[1] = molecular target: Gamma-aminobutyric acid receptor subunit alpha-2 (Rattus norvegicus, UniProt P23576)
[2] = molecular target: Gamma-aminobutyric acid receptor subunit alpha-5 (Rattus norvegicus, UniProt P19969)
[3] = molecular target: Gamma-aminobutyric acid receptor subunit alpha-3 (Rattus norvegicus, UniProt P20236)
[4] = molecular target: Gamma-aminobutyric acid receptor subunit alpha-4 (Rattus norvegicus, UniProt P28471)
[5] = molecular target: Gamma-aminobutyric acid receptor subunit alpha-1 (Rattus norvegicus, UniProt P62813)
[6] = molecular target: Gamma-aminobutyric acid receptor subunit alpha-6 (Rattus norvegicus, UniProt P30191)
Sequence of Gamma-aminobutyric acid receptor subunit alpha-6 (P30191 whole entry): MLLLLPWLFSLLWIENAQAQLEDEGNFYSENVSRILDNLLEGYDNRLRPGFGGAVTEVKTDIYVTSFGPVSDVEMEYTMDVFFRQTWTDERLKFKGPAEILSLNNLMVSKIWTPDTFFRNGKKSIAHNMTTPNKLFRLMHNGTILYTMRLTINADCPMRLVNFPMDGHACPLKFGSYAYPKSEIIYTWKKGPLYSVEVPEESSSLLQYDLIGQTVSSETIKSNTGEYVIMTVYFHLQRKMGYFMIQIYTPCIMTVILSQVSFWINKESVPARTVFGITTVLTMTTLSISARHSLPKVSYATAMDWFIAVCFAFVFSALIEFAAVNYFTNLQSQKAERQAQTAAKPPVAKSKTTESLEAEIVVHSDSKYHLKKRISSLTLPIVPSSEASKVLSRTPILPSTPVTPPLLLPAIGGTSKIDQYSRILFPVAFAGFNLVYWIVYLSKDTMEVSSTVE

Sequence of Gamma-aminobutyric acid receptor subunit alpha-5 (P19969 whole entry): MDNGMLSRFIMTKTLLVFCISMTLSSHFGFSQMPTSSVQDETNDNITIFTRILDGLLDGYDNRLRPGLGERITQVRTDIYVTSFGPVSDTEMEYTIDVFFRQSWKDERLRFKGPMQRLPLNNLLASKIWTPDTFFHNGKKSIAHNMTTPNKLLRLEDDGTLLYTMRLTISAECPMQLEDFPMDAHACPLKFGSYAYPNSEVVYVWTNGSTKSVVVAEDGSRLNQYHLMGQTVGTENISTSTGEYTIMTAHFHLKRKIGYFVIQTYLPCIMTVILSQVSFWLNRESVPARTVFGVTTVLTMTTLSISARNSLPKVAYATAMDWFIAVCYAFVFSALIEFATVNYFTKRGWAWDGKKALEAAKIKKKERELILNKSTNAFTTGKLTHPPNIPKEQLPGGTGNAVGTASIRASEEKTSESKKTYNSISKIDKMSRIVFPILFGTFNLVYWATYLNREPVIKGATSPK
Sequence of Gamma-aminobutyric acid receptor subunit alpha-4 (P28471 whole entry): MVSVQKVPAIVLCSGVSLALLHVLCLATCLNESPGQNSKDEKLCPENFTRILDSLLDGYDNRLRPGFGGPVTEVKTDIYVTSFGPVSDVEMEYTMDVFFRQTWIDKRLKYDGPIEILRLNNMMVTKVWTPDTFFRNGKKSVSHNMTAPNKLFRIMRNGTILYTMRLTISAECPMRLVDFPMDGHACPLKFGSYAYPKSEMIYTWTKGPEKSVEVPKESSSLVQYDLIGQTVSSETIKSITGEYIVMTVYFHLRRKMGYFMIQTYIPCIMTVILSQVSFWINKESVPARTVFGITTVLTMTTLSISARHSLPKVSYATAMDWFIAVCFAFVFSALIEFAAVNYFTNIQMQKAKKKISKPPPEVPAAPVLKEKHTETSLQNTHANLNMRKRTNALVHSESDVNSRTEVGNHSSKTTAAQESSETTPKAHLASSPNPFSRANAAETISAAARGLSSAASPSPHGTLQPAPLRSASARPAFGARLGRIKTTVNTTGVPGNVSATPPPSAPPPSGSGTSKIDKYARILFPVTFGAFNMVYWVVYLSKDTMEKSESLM
Sequence of Gamma-aminobutyric acid receptor subunit alpha-1 (P62813 whole entry): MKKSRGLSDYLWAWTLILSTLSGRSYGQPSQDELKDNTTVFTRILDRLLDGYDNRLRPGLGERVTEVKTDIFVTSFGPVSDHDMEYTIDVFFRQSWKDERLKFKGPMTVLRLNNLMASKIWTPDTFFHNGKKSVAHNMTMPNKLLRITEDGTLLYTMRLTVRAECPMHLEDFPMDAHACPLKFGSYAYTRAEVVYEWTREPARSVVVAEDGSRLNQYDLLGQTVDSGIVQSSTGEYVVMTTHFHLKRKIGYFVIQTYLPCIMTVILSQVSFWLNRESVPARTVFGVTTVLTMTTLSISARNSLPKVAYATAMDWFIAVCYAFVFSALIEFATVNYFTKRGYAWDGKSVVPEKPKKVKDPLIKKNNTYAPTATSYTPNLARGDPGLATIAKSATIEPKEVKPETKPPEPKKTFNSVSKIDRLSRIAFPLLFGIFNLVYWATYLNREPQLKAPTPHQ
Sequence of Gamma-aminobutyric acid receptor subunit alpha-2 (P23576 whole entry): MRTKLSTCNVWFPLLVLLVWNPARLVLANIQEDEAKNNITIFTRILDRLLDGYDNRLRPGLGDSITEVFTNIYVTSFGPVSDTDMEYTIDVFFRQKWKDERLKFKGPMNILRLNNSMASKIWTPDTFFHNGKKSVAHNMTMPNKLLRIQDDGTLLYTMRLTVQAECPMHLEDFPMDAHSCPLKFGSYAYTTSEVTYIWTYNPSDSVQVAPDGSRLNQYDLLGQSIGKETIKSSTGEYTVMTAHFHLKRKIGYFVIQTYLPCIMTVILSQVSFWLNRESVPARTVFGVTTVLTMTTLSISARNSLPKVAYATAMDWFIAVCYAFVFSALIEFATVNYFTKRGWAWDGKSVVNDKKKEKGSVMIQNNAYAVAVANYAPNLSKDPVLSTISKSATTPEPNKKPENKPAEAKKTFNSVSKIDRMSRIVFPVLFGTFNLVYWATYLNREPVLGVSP
Sequence of Gamma-aminobutyric acid receptor subunit alpha-3 (P20236 whole entry I342M/K409L): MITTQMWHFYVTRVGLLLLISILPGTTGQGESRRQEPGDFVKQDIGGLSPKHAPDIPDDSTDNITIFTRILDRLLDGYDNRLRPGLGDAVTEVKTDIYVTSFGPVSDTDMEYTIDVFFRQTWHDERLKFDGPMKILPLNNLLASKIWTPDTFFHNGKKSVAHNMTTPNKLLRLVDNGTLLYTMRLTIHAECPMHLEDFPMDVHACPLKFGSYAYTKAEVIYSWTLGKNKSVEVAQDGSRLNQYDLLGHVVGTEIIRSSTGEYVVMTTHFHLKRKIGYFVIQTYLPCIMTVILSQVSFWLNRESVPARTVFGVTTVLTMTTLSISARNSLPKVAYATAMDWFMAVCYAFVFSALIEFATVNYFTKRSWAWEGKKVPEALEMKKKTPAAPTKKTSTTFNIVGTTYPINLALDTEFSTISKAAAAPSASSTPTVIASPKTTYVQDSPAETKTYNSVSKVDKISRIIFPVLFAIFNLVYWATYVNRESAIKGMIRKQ

Row | SMILES | pKi [1] | pKi [2] | pKi [3] | pKi [4] | pKi [5] | pKi [6]
1 | C[C@]12CC[C@H]3[C@@H](CC[C@@H]4C[C@@](O)(C(F)(F)F)CC[C@@H]43)[C@@H]1CC[C@@H]2C(=O)CO [GMA-839] | 6.70 | 6.68 | 7.02 | 5.64 | 6.70 | 5.70
2 | CC(=O)C1CCC2C3CC[C@H]4C[C@H](O)CC[C@]4(C)C3CC[C@]12C (stereo partly specified) [Allopregnanolone] | 7.39 | 7.68 | 7.70 | 5.72 | 7.76 | 
